From patent publication US9669095B2, “Cyclosporin analogues for preventing or treating hepatitis C infection” (Enanta Pharmaceuticals, Inc., priority 2014, dated 2017)
*1 amine or outer side, *2 acyl side, *3 side chain or, on linkers, in order; H or OH if unused. Where a SMILES comes first, the peptide text is derived from it. [ ]: non-standard residue; d: D form. X1 = C/C=C/C[C@@H](C)C1ON([*:1])[C@@H]1C(=O)[*:2]; X2 = CNCC(C)(C)[C@@H](C(=O)[*:2])N(C)[*:1]; NMeL = CN[C@@H](CC(C)C)C(=O)O; NMeV = CN[C@H](C(=O)O)C(C)C; dNMeA = CN[C@H](C)C(=O)O; Abu = CC[C@H](N)C(=O)O

Tested on: HCV 1a genotype
Assay type: cell-based, hepatitis C virus
Settings: Genotype-1a replicon, Luciferase assay, 72 hours

`C/C=C/C[C@@H](C)C1ON2C(=O)[C@H](C(C)C)N(C)C(=O)[C@H](CC(C)C)N(C)C(=O)[C@H](CC(C)C)N(C)C(=O)[C@@H](C)NC(=O)[C@H](C)NC(=O)[C@H](CC(C)C)N(C)C(=O)[C@H](C(C)C)NC(=O)[C@H](C(C)(C)CNC)N(C)C(=O)[C@@H](C)N(C)C(=O)[C@H](CC)NC(=O)[C@H]12` (stereo partly shown) [Example 1] (cyclo(A[dA][NMeL][NMeL][NMeV][X1][Abu][dNMeA][X2]V[NMeL])) showed an EC50 of 0.01 to 0.1 µM.
